According to US6818203B2, “Use of perfluoroalkyl-containing metal complexes as contrast media in MR-imaging for visualization of plaque, tumors and necroses” (Schering Aktiengesellschaft, priority 2000, dated 2004):

What was measured:
[1] = critical micelle formation concentration (CMC) by tensiometry; assay type: physicochemical
Experimental: In aqueous systems, these amphiphilic molecules show the properties that are characteristic of standard surfactants (such as, e.g., sodium dodecylsulfate, SDS). They thus reduce the surface tension of water. By tensiometry, the so-called CMC (critical micelle formation concentration in mol/l) can be determined. In this respect, the surface tension is determined based on the concentration of the substance to be measured. The CMC can be calculated from the plot of the surface tension function (c) that is obtained. The critical micelle formation concentration of the compounds according to the invention must be <10^−3 mol/l, preferably <10^−4 mol/l.
Both the determination of the CMC and the photon correlation spectroscopy are described in H.-D. Dörfler, “Grenzflächen- und Kolloidchemie [Interface and Colloid Chemistry],” Weinheim, New York, Basel, Cambridge, Tokyo, VSH 1994.

[2] = proton relaxivity in plasma (R^1), Minispec P 20; assay type: physicochemical; details: 40° C., 0.47 tesla, bovine plasma
Experimental: As a third criterion, the proton-relaxivity in plasma (R^1) at 40° C. and a field strength of 0.47 tesla is used. The relaxivity, which is indicated in [l/mmol·s], is the quantitative measurement for the shortening of relaxation time T^1 of the protons. For the purpose according to the invention, the relaxivity must be as high as possible and >10 l/mmol·s, preferably >13 l/mmol·s, especially preferably >15 l/mmol·s.
Relaxivity R^1 [l/mmol·s] of the MR-contrast media according to the invention was determined with the Minispec P 20 device of the Bruker Company. The measurements were taken at 40° C. and a field strength of 0.47 tesla. Eight measuring points were recorded by each T1-sequence: 180°-TI-90°, inversion recovery. As a medium, bovine plasma of the Kraeber Company was used. The contrast medium concentrations [mmol/l] in the batches were between 0.30 and 1.16.

myocardial infarction = assay: infarction visualization (MRT) after intravenous administration in rats with acutely induced myocardial infarction; assay type: in vivo
Text: The successful induction of an acute myocardial infarction was confirmed by means of NBT-staining.

Row | Structure (SMILES) | CMC (critical micelle formation concentration) [1] [mol/L] | R^1 Plasma (relaxivity) [2] [mmol⁻¹ s⁻¹] | signal in the infarction area (T1-weighted spin-echo images) (myocardial infarction; 22 hours after i.v. 100 μmol of Gd/kg) | signal in the infarction area (T1-weighted spin-echo images) (myocardial infarction; 24 hours after i.v. 100 μmol of Gd/kg) | signal in the infarction area (T1-weighted spin-echo images) (myocardial infarction; 6 hours after i.v. 100 μmol of Gd/kg)
1 | O=C([O-])CN1CCN(CC(=O)[O-])CCN(CC(O)CNC(=O)CCCC(=O)N2CCN(C(F)(F)C(F)(F)C(F)(F)C(F)(F)C(F)(F)C(F)(F)C(F)(F)C(F)(F)F)CC2)CCN(CC(=O)[O-])CC1.[Gd+3] (stereo not drawn) [metal complex III] | 7.06e-06 | 24.9 | strong signal rise | – | –
2 | CC(C(=O)NCC(=O)N(CCOCCC(F)(F)C(F)(F)C(F)(F)C(F)(F)C(F)(F)C(F)(F)C(F)(F)C(F)(F)F)CC(O)CO)N1CCN(CC(=O)[O-])CCN(CC(=O)[O-])CCN(CC(=O)[O-])CC1.[Gd+3] (stereo not drawn) [metal complex V] | 3.9e-06 | 19.6 | – | strong signal rise | –
3 | COCCN(CCOCCC(F)(F)C(F)(F)C(F)(F)C(F)(F)C(F)(F)C(F)(F)C(F)(F)C(F)(F)F)C(=O)CNC(=O)C(C)N1CCN(CC(=O)[O-])CCN(CC(=O)[O-])CCN(CC(=O)[O-])CC1.[Gd+3] (stereo not drawn) [metal complex X] | 7.9e-06 | 25.7 | – | – | strong signal rise
